From ChEMBL document CHEMBL1138389, “Identification of selective neuropeptide Y2 peptide agonists” (Bioorg Med Chem Lett, 2007)
Bridge positions count the residues as written; N and C are the ends. Peptide text beside a SMILES is read from it.

Assays:
[1] = biological target: T1, Neuropeptide Y receptor type 2 (Homo sapiens, UniProt P49146); assay: Agonist activity at human NPY2 receptor expressed in human KAN-TS cells by [35S]GTP-gamma-S incorporation assay; format: functional, cell-based
T1 sequence (P49146 whole entry): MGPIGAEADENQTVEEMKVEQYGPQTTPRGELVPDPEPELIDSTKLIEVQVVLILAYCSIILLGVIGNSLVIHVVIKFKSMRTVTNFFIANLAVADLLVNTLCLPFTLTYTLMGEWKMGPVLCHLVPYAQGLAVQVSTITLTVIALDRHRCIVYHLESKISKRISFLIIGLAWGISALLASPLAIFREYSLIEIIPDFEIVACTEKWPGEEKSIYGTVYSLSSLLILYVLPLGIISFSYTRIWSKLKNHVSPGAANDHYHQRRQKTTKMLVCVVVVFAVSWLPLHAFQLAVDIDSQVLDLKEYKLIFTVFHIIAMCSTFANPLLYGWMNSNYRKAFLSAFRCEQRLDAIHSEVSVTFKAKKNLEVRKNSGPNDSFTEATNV

[2] = biological target: T2, Neuropeptide Y receptor type 1 (Homo sapiens, UniProt P25929); assay: Displacement of [125I]PYY from NPY1 receptor expressed in human SK-N-MC cells; format: cell-based
T2 sequence (P25929 whole entry): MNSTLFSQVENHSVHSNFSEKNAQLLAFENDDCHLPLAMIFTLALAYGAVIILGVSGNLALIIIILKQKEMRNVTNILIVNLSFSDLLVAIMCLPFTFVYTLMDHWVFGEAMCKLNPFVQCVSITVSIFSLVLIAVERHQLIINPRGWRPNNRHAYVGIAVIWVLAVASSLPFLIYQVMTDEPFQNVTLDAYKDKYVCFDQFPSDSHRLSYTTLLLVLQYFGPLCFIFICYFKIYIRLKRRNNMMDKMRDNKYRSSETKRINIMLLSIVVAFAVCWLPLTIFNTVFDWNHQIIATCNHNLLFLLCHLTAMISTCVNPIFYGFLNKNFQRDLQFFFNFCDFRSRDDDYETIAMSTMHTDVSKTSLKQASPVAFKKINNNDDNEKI

[3] = biological target: T1, Neuropeptide Y receptor type 2; assay: Displacement of human [125I]PYY from NPY2 receptor expressed in human KAN-TS cells; format: cell-based
[4] = biological target: T3, Neuropeptide Y receptor type 5 (Homo sapiens, UniProt Q15761); assay: Displacement of [125I]PYY from NPY5 receptor expressed in human HEK293 cells; format: cell-based
T3 sequence (Q15761 whole entry): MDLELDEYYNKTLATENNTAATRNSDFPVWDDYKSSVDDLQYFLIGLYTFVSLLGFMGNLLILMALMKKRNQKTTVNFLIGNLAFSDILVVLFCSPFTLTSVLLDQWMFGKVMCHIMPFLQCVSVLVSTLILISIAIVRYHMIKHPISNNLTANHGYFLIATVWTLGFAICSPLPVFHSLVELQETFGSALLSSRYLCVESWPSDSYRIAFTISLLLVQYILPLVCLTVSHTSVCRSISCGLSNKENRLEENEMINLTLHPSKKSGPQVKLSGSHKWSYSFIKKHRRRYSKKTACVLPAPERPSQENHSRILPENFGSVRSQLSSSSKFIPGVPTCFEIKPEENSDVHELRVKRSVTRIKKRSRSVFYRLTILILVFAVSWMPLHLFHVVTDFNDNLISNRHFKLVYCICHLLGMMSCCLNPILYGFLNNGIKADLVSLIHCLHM

| EC50 [1] [nM] | Ki [2] [nM] | Ki [3] [nM] | EC50 ([1]; kan-ts) [nM] | Ki ([2]; sk-n-mc) [nM] | Ki ([4]; hek293) [nM] | Ki ([3]; kan-ts) [nM] | Ki [4] [nM] | Molecule |
| --- | --- | --- | --- | --- | --- | --- | --- | --- |
| 13 | 118 | 9 | – | – | – | – | – | CC(=O)N[C@@H](C)C(=O)N[C@@H](CO)C(=O)N[C@@H](CC(C)C)C(=O)N[C@@H](CCCNC(=N)N)C(=O)N[C@@H](Cc1cnc[nH]1)C(=O)N[C@@H](Cc1ccc(O)cc1)C(=O)N[C@@H](CC(C)C)C(=O)N[C@@H](CC(N)=O)C(=O)N[C@@H](CC(C)C)C(=O)N[C@H](C(=O)N[C@H](C(=O)N[C@@H](CCCNC(=N)N)C(=O)N[C@@H](CCC(N)=O)C(=O)N[C@@H](CCCNC(=N)N)C(=O)N[C@@H](Cc1ccc(O)cc1)C(N)=O)[C@@H](C)O)C(C)C |
| – | – | – | 31 | > 1000 | > 1000 | 75 | – | CC[C@H](C)[C@@H]1NC(=O)[C@H](CC(C)C)NC(=O)[C@H](CC(N)=O)NC(=O)[C@@H](NC(=O)[C@H](Cc2ccc(O)cc2)NC(=O)[C@H](Cc2cnc[nH]2)NC(=O)[C@H](CCCN=C(N)N)NC(C)=O)CCCCNC(=O)CC[C@@H](C(=O)N[C@@H](CCCN=C(N)N)C(=O)N[C@@H](CCC(N)=O)C(=O)N[C@@H](CCCN=C(N)N)C(=O)N[C@@H](Cc2ccc(O)cc2)C(N)=O)NC1=O (Ac-RHYKNLIERQRY-NH2; lactam 4-8) |
| 430 | > 1000 | 670 | – | – | – | – | > 1000 | Ac-HYLNLVTRQRY-NH2 |
